Values quoted from earlier work, collected in patent publication US20060014193A1, “Nucleoside phosphoramidates and nucleoside phosphoramidases” (priority 2004, published 2006).
Marks after values point to notes of the source that are not given here.

How the values were obtained:
Yeast HNT = biological target: T1, Yeast HNT (Saccharomyces cerevisiae, UniProt Q04344); settings: Bieganowski et al, 2002; cited from earlier work
T1 sequence (Q04344 1-158): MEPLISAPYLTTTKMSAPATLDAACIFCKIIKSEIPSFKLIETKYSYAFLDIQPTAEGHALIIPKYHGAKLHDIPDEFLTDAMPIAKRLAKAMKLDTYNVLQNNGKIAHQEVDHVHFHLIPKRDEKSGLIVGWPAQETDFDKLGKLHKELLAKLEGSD

Rabbit HINT1 = biological target: T2, Rabbit HINT1 (Oryctolagus cuniculus, UniProt P80912); settings: Bieganowski et al, 2002; cited from earlier work
T2 construct: made in house; host or cells: E. coli hinT deletion mutant
T2 sequence (P80912 whole entry): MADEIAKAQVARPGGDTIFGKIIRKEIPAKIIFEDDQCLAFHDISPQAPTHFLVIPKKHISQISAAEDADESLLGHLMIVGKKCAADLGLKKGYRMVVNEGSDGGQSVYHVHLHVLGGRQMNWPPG

In the case of `Nc1ncnc2c1ncn2[C@@H]1O[C@H](COP(N)(=O)O)[C@@H](O)[C@H]1O` [AMP-NH2, Adenosine 5′-monophosphoramidate], the Velocity (Yeast HNT) is given as 7.57^b nmol/μg/min and the Velocity (Rabbit HINT1) is given as 1.71^b nmol/μg/min.
